Laboratory results as given in patent publication US6303596A, “Use of taurolidine for treatment of leukemias” (priority 2000, dated 2001).

How the values were obtained:
MM6 cells = assay: trypan blue exclusion, MM6; type: cell-based, human
Procedure: FIG. 4A and FIG. 4B are graphs depicting cell viability and growth rates following taurolidine treatment as determined by assay procedures. MM6 cells were treated with taurolidine as described in FIG. 3. After aliquots were collected for the lactate dehydrogenase (LDH) assay, the remainder of the culture was rinsed in Hank's balanced salt solution (HBSS) and resuspended in RPMI+10% BCS without taurolidine. Counts of trypan blue-negative cells represented in FIG. 4A and total cell number represented in FIG. 4B were recorded daily thereafter (with the measurement at Day 1 being made immediately after the four hour taurolidine treatment). Conditions were no treatment (open squares); 50 μg/ml taurolidine (closed squares); 25 μg/ml taurolidine (open circles); and vehicle alone (closed circles). Cells were subcultured when they reached a concentration of 6×10^5 cells/ml. Data are mean±SEM of three experiments.
FIGS. 5A and 5B depict cell viability and growth rates for MM6 cell line following taurolidine treatment, in terms of % trypan blue negative cells and % cell number, respectively. Cells were treated with various concentrations of taurolidine for 4 hours in AIM-V+0.01% BCS. After aliquots were collected for LDH assay, the remainder of the culture was rinsed in HBSS and resuspended in RPMI+10% BCS without taurolidine. Counts of trypan blue-negative cells (FIG. 5A), and total cell number (FIG. 5B), were recorded daily thereafter (with the measurement at Day 1 being made immediately after the 4 hour taurolidine treatment). […] Doubling times were determined under each condition, and expressed as a percentage of the rate of doubling of untreated cells. […]
In these experiments, integrity of cell membranes following taurolidine treatment was assessed by exclusion of trypan blue and by measuring the release of LDH in MM6, K-562, HL-60, and REH cells. […] A parallel aliquot of cells was lysed by three cycles of freeze/thaw and the quantity of LDH released was taken to be 100%. […]

Monocytes = assay: TUNEL / propidium iodide flow cytometry, monocytes in PBMC, culture medium; type: cell-based, human
Procedure: FIG. 14A and FIG. 14B are terminal deoxytransferase-mediated deoxyuridine-triphosphate-biotin nick end labeling assay (TUNEL) analyses of control cells and taurolidine-treated PBMC, respectively. Cells were incubated with 100 μg/ml taurolidine for six hours and processed for TUNEL analysis as given below. Parallel samples were stained with FITC-conjugated anti-CD14 and propidium iodide (PI) as described below. Ten thousand events were recorded per sample. TUNEL signal (x-axis) is a measure of DNA fragmentation, which FSC (y-axis) is related to cell size. TUNEL-negative lymphocytes are bounded by the rectangle R1, while TUNEL-negative monocytes (CD14 positive cells) are bounded by the rectangle R2. The vertical line indicates demarcation between TUNEL-negative and TUNEL-positive cells. There were minimal numbers of PI-positive cells in the six hour samples (see Table IV).
In the second method, DNA fragmentation was detected via TUNEL assay according to the manufacturer's instructions. With this methodology, 2×10^6 cells were fixed with 2% paraformaldehyde, permeabilized with 0.1% Triton X-100/0.1% citrate, incubated at 37° C. with terminal deoxynucleotidyl transferase and FITC-dUTP, rinsed and analyzed by flow cytometry. Enhanced FITC signal indicates apoptosis-specific DNA fragmentation. Gavriali, et al, "Identification of programmed cell death in situ via specific labeling of nuclear DNA fragmentation," J Cell Biol 119:493 (1992). Parallel aliquots of unfixed cells were treated with PI and FITC-conjugated anti-CD14 and analyzed by flow cytometry, in order to identify cells with permeable cell membranes (since PI binds to DNA but is excluded from cells with intact plasma membranes) and also to determine the cell-specificity of the apoptotic signal.
A Becton-Dickinson FACSCalibur instrument was used for flow cytometric analysis of cells. Assessment of cell diameter (forward scatter; FCS) and granularity (side scatter; SSC).was carried out on unfixed cells. Discrimination between lymphocytes and monocytes was made possible by their characteristic differences in FSC and SSC, and confirmed by staining monocytes with FITC-labeled anti-CD14 antibodies and lymphocytes with a combination of FITC-conjugated anti-CD3 and PE-conjugated anti-CD19. After incubation with taurolidine (with or without concomitant LPS treatment), cells were rinsed twice in phosphate-buffered saline containing 0.1% bovine serum albumin (PBSA) and 1×10^6 cells were resuspended in 0.1 ml PBSA. After 5 μl FITC-conjugated anti-CD14 was added, cells were incubated in the dark on ice for 15 minutes and then centrifuged at 250×g. Cells were resuspended in 500 μl PBSA containing 5 μg/ml PI and subjected to flow cytometry.
Consequently, TUNEL analysis was performed on PBMC at 3, 6, or 24 hours after treatment with 25 to 100 μg/ml taurolidine. Aliquots of harvested cells were also labeled with FITC-conjugated anti-CD14 antibodies and PI, which allowed identification of monocytes (CD14-positive cells) and cells with damaged cell membranes (PI-positive cells). […] Thus, nearly 75% of the monocytes were TUNEL-positive following treatment with 100 μg/ml taurolidine for six hours. Confirmation that the TUNEL-positive cells were monocytes was obtained by staining with FITC-conjugated anti-CD14.
^a Analysis by flow cytometry after staining cells with FITC-conjugated
anti-CD14 and PI, and processing for TUNEL. Data are mean ± SD of two
^b Percent of cells present in the TUNEL-negative region in control

[1] = intravenous administration; cited from earlier work

Structure (SMILES): O=S1(=O)CCN(CN2CCS(=O)(=O)NC2)CN1 [taurolidine, 4,4'-methylenebis(perhydro-1,2,4-thiadiazin 1,1-dioxide)]
- cytotoxicity at 50 µg/mL (MM6 cells; Homo sapiens, MM6, 50 μg/ml taurolidine for 4 h, untreated and vehicle 5%, read-out: trypan blue-positive cells on the day following treatment (Day 2)): 65%
- trypan blue staining after treatment (MM6 cells; MM6, 25 μg/ml taurolidine): did not show an increase in trypan blue staining
- trypan blue exclusion immediately after treatment (Day 1) (MM6 cells; MM6, taurolidine-treated 4 h, versus control): equally able to exclude trypan blue
- TUNEL-positive (apoptotic) monocytes (Monocytes; 100 μg/ml taurolidine, 6 h, culture medium, 360 min): approximately 75%
- induction of apoptosis at lower doses (Monocytes; 25 and 50 μg/ml taurolidine, versus 100 μg/ml): lower levels of induction of apoptosis
- cytotoxicity at 100 µg/mL (Monocytes; Homo sapiens, Monocyte, 100 μg/ml taurolidine, 6 h, culture medium, read-out: TUNEL-positive (apoptotic) monocytes): ~75%
- viability at 25 µg/mL (Monocytes; Homo sapiens, Monocyte, monocytes, 25 μg/ml, 6 h, percent of control, read-out: % TUNEL-Negative): 88.3 ± 2.7%
- viability at 50 µg/mL (Monocytes; Homo sapiens, Monocyte, monocytes, 50 μg/ml, 6 h, percent of control, read-out: % TUNEL-Negative): 67.8 ± 18%
- viability at 100 µg/mL (Monocytes; Homo sapiens, Monocyte, monocytes, 100 μg/ml, 6 h, percent of control, read-out: % TUNEL-Negative): 25.1 ± 11.8%
- onset of apoptosis after treatment (Monocytes; monocytes): detectable within four to six hours
- alterations in hematologic variables, including white cell count [1]: does not cause detectable alterations
